Assay results reported in PubChem BioAssay AID330 (DTP/NCI, 2004).
“And” between values parts separate entries of the source, which are not always exact repeats. Equal values may be shown once. Inconclusive results and toxic doses are left out. Rule for the calls: active = survival T/C of 150% or more; inactive = T/C below 125% in these data.

Test system: P388 leukemia ip, CD2F1 mice, survival T/C
Assay: NCI In Vivo Anticancer Drug Screen. Data for tumor model P388 Leukemia (intraperitoneal) in CD2F1 (CDF1) mice
Settings: endpoint: median survival time, higher = longer survival
Method: The antitumor activity of compounds was measured in mice bearing transplantable tumors. Survival or tumor size were measured and the results are expressed as the measurement made in the treated group (T) divided by the measurement made in the vehicle treated control group (C). The tumor model used in this assay is P388 Leukemia (intraperitoneal) in CD2F1 (CDF1) mice

[1] = dose: 50.0 mg/kg/injection, schedule: Q01DX005 (ip), vehicle: Klucel (hydroxypropylcellulose) (HPC)
[2] = dose: 100.0 mg/kg/injection, schedule: Q01DX005 (ip), vehicle: Klucel (hydroxypropylcellulose) (HPC)
[3] = dose: 50.0 mg/kg/injection, schedule: Q01DX009 (ip), vehicle: Klucel (hydroxypropylcellulose) (HPC)
[4] = dose: 100.0 mg/kg/injection, schedule: Q01DX009 (ip), vehicle: saline with Tween-80

Measured: T/C

C[n+]1ccn2cc(S(=O)(=O)[O-])ccc21
inactive: dose: 3.12 mg/kg/injection, schedule: Q01DX009 (ip), vehicle: saline 92 % of control | dose: 6.25 mg/kg/injection, schedule: Q01DX009 (ip), vehicle: saline 95 % of control

COc1ccc(C2(c3ccc(OC)cc3)N=C(N(C)C)NC2=O)cc1
inactive: dose: 50.0 mg/kg/injection, schedule: Q04DX002 (ip), vehicle: saline with Tween-80 102 % of control | dose: 100.0 mg/kg/injection, schedule: Q04DX002 (ip), vehicle: saline with Tween-80 97 % of control | dose: 200.0 mg/kg/injection, schedule: Q04DX002 (ip), vehicle: saline with Tween-80 94 % of control

C=C(C)C(=NC(C)C)Nc1ccccc1Cl
inactive: [1] 92 % of control and 108 % of control | [2] 92 % of control and 107 % of control | dose: 200.0 mg/kg/injection, schedule: Q01DX005 (ip), vehicle: Klucel (hydroxypropylcellulose) (HPC) 98 % of control

CC1CC2OC2/C=C\C=C\C(=O)Cc2c(Cl)c(O)cc(O)c2C(=O)O1 (stereo unspecified)
inactive: dose: 6.25 mg/kg/injection, schedule: Q01DX009 (ip), vehicle: Klucel (hydroxypropylcellulose) (HPC) 107 % of control | dose: 12.5 mg/kg/injection, schedule: Q01DX009 (ip), vehicle: Klucel (hydroxypropylcellulose) (HPC) 108 % of control | dose: 25.0 mg/kg/injection, schedule: Q01DX009 (ip), vehicle: Klucel (hydroxypropylcellulose) (HPC) 110 % of control | [3] 109 % of control

CC1(C)Nc2cccc3cccc(c23)N1
inactive: [1] 108 % of control | [2] 86 % of control

CCCCP(=O)(CCCC)CCCC.CCCCP(=O)(CCCC)CCCC.CCCCP(=O)(CCCC)CCCC.CCCCP(=O)(CCCC)CCCC.[Mn+2].[O-][Cl+3]([O-])([O-])O
inactive: dose: 50.0 mg/kg/injection, schedule: Q01DX009 (ip), vehicle: saline + Tween-80 + alcohol 101 % of control | dose: 50.0 mg/kg/injection, schedule: Q01DX009 (ip), vehicle: saline with Tween-80 104 % of control | dose: 100.0 mg/kg/injection, schedule: Q01DX009 (ip), vehicle: saline + Tween-80 + alcohol 116 % of control | [4] 119 % of control | dose: 200.0 mg/kg/injection, schedule: Q01DX009 (ip), vehicle: saline + Tween-80 + alcohol 122 % of control

Cc1cc(N(C)C)c2ccc3c(ccc4c(N(C)C)cc(C)nc43)c2n1
inactive: dose: 25.0 mg/kg/injection, schedule: Q01DX009 (ip), vehicle: saline with Tween-80 94 % of control | [4] 103 % of control | dose: 200.0 mg/kg/injection, schedule: Q01DX009 (ip), vehicle: saline with Tween-80 99 % of control

CCCN1CCc2cc3c(cc2C1)OCO3
inactive: dose: 60.0 mg/kg/injection, schedule: Q01DX005 (ip), vehicle: saline 93 % of control | dose: 120.0 mg/kg/injection, schedule: Q01DX005 (ip), vehicle: saline 91 % of control

CC(=O)OC1CCC2C(=CCC3C2(C)C(=O)CC2(C)C(C4(C)OC(C(C)C)=CC4=O)C(O)CC32C)C1(C)C (stereo unspecified)
inactive: dose: 9.63 mg/kg/injection, schedule: Q01DX005 (ip), vehicle: saline + Tween-80 + alcohol 111 % of control | dose: 19.25 mg/kg/injection, schedule: Q01DX005 (ip), vehicle: saline + Tween-80 + alcohol 111 % of control | dose: 38.5 mg/kg/injection, schedule: Q01DX005 (ip), vehicle: saline + Tween-80 + alcohol 106 % of control | dose: 77.0 mg/kg/injection, schedule: Q01DX005 (ip), vehicle: saline + Tween-80 + alcohol 97 % of control

CC1(C)CC(=O)C=C(NCCCCCCNC2=CC(=O)CC(C)(C)C2)C1
inactive: [3] 113 % of control | dose: 100.0 mg/kg/injection, schedule: Q01DX009 (ip), vehicle: Klucel (hydroxypropylcellulose) (HPC) 103 % of control | dose: 200.0 mg/kg/injection, schedule: Q01DX009 (ip), vehicle: Klucel (hydroxypropylcellulose) (HPC) 95 % of control

CC1(C)OCC2OC3OC(C)(C)OC3C(OS(C)(=O)=O)C2O1 (stereo unspecified)
inactive: dose: 50.0 mg/kg/injection, schedule: Q01DX005 (ip), vehicle: saline with Tween-80 98 % of control | dose: 100.0 mg/kg/injection, schedule: Q01DX005 (ip), vehicle: saline with Tween-80 105 % of control | dose: 200.0 mg/kg/injection, schedule: Q01DX005 (ip), vehicle: saline with Tween-80 99 % of control

CCCCN=NN(C)CCCC
inactive: dose: 12.5 mg/kg/injection, schedule: Q01DX005 (ip), vehicle: saline with Tween-80 107 % of control | dose: 25.0 mg/kg/injection, schedule: Q01DX005 (ip), vehicle: saline with Tween-80 117 % of control
